Target: T1, SIRT1 (Homo sapiens, UniProt Q96EB6)
T1 sequence (Q96EB6 1-747): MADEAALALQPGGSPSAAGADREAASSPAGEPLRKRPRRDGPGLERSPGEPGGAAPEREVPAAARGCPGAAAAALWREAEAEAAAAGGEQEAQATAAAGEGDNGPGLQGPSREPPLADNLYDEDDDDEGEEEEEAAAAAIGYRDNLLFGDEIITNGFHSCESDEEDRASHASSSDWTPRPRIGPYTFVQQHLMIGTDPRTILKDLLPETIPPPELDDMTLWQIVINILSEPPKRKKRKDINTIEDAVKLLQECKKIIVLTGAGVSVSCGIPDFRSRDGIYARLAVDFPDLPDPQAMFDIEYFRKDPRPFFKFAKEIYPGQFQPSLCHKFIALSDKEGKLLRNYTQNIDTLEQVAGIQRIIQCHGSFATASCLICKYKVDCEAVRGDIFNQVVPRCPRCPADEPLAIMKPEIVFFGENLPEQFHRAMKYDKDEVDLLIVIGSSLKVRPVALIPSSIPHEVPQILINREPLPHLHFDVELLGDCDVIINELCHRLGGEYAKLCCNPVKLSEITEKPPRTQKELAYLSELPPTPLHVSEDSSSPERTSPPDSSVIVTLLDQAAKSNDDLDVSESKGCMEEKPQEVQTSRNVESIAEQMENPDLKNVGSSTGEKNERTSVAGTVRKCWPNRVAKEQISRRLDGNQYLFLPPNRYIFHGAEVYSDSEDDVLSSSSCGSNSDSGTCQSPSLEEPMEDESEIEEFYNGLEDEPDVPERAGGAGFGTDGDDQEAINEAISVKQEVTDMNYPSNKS
Assay: Trp mass spectrometry assay of SIRT1 activity (EC1.5, percent maximum activation)
Type: biochemical
Details: Trp mass spectrometry assay; for TRP Activity (EC1.5): EC1.5 = concentration giving 150% activation of SIRT1; for TRP MAX RESP (percent maximum fold activation): percent maximum activation of SIRT1
Method in brief: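 N-terminal His-tagged human SIRT1 from E. coli BL21(DE3) was incubated 25 min with a 5TMR-labelled, p53-derived Trp peptide and NAD plus varying compound concentrations, then quenched with formic acid. Mass spectrometry quantified OAADPR or deacetylated peptide versus compound-free control, giving EC1.5 and percent maximum activation.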

| SMILES | TRP Activity (EC1.5) | TRP MAX RESP (percent maximum fold activation) |
| --- | --- | --- |
| Cc1cc(-c2nc3c(cc2Cl)N2CC[C@@H](C2)N3C(=O)Nc2cccc(OC[C@H](O)CO)n2)ccn1 [Example 41, (4S)-8-chloro-N-(6-((R)-2,3-dihydroxypropoxy)pyridin-2-yl)-7-(2-methylpyridin-4-yl)-3,4-dihydro-1,4-methanopyrido[2,3-b][1,4]diazepine-5(2H)-carboxamide] | B (EC1.5 1-25 μM) | A (Fold activation ≧150%) |
| O=C(Nc1ccnc(OCCCO)n1)N1c2nc(-c3cccc(C(F)(F)F)c3)c(Cl)cc2N2CC[C@H]1C2 [Example 42, (4S)-8-chloro-N-(2-(3-hydroxypropoxy)pyrimidin-4-yl)-7-(3-(trifluoromethyl)phenyl)-3,4-dihydro-1,4-methanopyrido[2,3-b][1,4]diazepine-5(2H)-carboxamide] | A (EC1.5<1 μM) | A (Fold activation ≧150%) |
| CC(C)(CO)COc1cncc(NC(=O)N2c3nc(-c4cccc(C(F)(F)F)c4)c(Cl)cc3N3CC[C@H]2C3)n1 [Example 43, (4S)-8-chloro-N-(6-(3-hydroxy-2,2-dimethylpropoxy)pyrazin-2-yl)-7-(3-(trifluoromethyl)phenyl)-3,4-dihydro-1,4-methanopyrido[2,3-b][1,4]diazepine-5(2H)-carboxamide] | B (EC1.5 1-25 μM) | A (Fold activation ≧150%) |
| Cc1cc(-c2nc3c(cc2Cl)N2CC[C@@H](C2)N3C(=O)Nc2cc(OC[C@@H](O)CO)ncn2)ccn1 [Example 44, (4S)-8-chloro-N-(6-((S)-2,3-dihydroxypropoxy)pyrimidin-4-yl)-7-(2-methylpyridin-4-yl)-3,4-dihydro-1,4-methanopyrido[2,3-b][1,4]diazepine-5(2H)-carboxamide] | C (EC1.5>25 μM) | B (Fold Activation <150%) |
| O=C(Nc1cncc(OC[C@@H](O)CO)n1)N1c2nc(-c3cccc(C(F)(F)F)c3)c(Cl)cc2N2CC[C@H]1C2 [Example 45, (4S)-8-chloro-N-(6-((S)-2,3-dihydroxypropoxy)pyrazin-2-yl)-7-(3-(trifluoromethyl)phenyl)-3,4-dihydro-1,4-methanopyrido[2,3-b][1,4]diazepine-5(2H)-carboxamide] | A (EC1.5<1 μM) | A (Fold activation ≧150%) |
| O=C(Nc1nccc(OC[C@H](O)CO)n1)N1c2nc(-c3cccc(C(F)(F)F)c3)c(Cl)cc2N2CC[C@H]1C2 [Example 46, (4S)-8-chloro-N-(4-((R)-2,3-dihydroxypropoxy)pyrimidin-2-yl)-7-(3-(trifluoromethyl)phenyl)-3,4-dihydro-1,4-methanopyrido[2,3-b][1,4]diazepine-5(2H)-carboxamide] | A (EC1.5<1 μM) | A (Fold activation ≧150%) |
| Cc1cc(-c2nc3c(cc2Cl)N2CC[C@@H](C2)N3C(=O)Nc2cc(F)cc(-c3cccnc3)c2)ccn1 [Example 47, (4S)-8-chloro-N-(3-fluoro-5-(pyridin-3-yl)phenyl)-7-(2-methylpyridin-4-yl)-3,4-dihydro-1,4-methanopyrido[2,3-b][1,4]diazepine-5(2H)-carboxamide] | B (EC1.5 1-25 μM) | A (Fold activation ≧150%) |
| CC(C)(O)CCOc1nccc(NC(=O)N2c3nc(-c4cccc(C(F)(F)F)c4)c(Cl)cc3N3CC[C@H]2C3)n1 [Example 48, (4S)-8-chloro-N-(2-(3-hydroxy-3-methylbutoxy)pyrimidin-4-yl)-7-(3-(trifluoromethyl)phenyl)-3,4-dihydro-1,4-methanopyrido[2,3-b][1,4]diazepine-5(2H)-carboxamide] | B (EC1.5 1-25 μM) | A (Fold activation ≧150%) |
| CC(C)(CO)COc1cccc(NC(=O)N2c3nc(-c4cccc(C(F)(F)F)c4)c(Cl)cc3N3CC[C@H]2C3)n1 [Example 49, (4S)-8-chloro-N-(6-(3-hydroxy-2,2-dimethylpropoxy)pyridin-2-yl)-7-(3-(trifluoromethyl)phenyl)-3,4-dihydro-1,4-methanopyrido[2,3-b][1,4]diazepine-5(2H)-carboxamide] | B (EC1.5 1-25 μM) | A (Fold activation ≧150%) |
| O=C(Nc1ccnc(OC[C@H](O)CO)n1)N1c2nc(-c3cccc(C(F)(F)F)c3)c(Cl)cc2N2CC[C@H]1C2 [Example 50, (4S)-8-chloro-N-(2-((R)-2,3-dihydroxypropoxy)pyrimidin-4-yl)-7-(3-(trifluoromethyl)phenyl)-3,4-dihydro-1,4-methanopyrido[2,3-b][1,4]diazepine-5(2H)-carboxamide] | A (EC1.5<1 μM) | A (Fold activation ≧150%) |
| Cl.O=C(Nc1ccnc(OC[C@H](O)CO)n1)N1c2nc(-c3cccc(C(F)(F)F)c3)c(Cl)cc2N2CC[C@H]1C2 [Example 51, (4S)-8-chloro-N-(2-((R)-2,3-dihydroxypropoxy)pyrimidin-4-yl)-7-(3-(trifluoromethyl)phenyl)-3,4-dihydro-1,4-methanopyrido[2,3-b][1,4]diazepine-5(2H)-carboxamide Hydrochloride] | A (EC1.5<1 μM) | A (Fold activation ≧150%) |
| O=C(NC1CC1)N1c2nc(-c3cccc(C(F)(F)F)c3)c(Cl)cc2N2CC[C@H]1C2 [Example 52, (4S)-8-chloro-N-cyclopropyl-7-(3-(trifluoromethyl)phenyl)-3,4-dihydro-1,4-methanopyrido[2,3-b][1,4]diazepine-5(2H)-carboxamide] | A (EC1.5<1 μM) | A (Fold activation ≧150%) |
| Cl.O=C(NC1CC1)N1c2nc(-c3cccc(C(F)(F)F)c3)c(Cl)cc2N2CC[C@H]1C2 [Example 53, (4S)-8-chloro-N-cyclopropyl-7-(3-(trifluoromethyl)phenyl)-3,4-dihydro-1,4-methanopyrido[2,3-b][1,4]diazepine-5(2H)-carboxamide Hydrochloride] | A (EC1.5<1 μM) | A (Fold activation ≧150%) |
| O=C(Nc1ccnc(OC2CCOCC2)n1)N1c2nc(-c3cccc(C(F)(F)F)c3)c(Cl)cc2N2CC[C@H]1C2 [Example 55, (4S)-8-chloro-N-(2-((tetrahydro-2H-pyran-4-yl)oxy)pyrimidin-4-yl)-7-(3-(trifluoromethyl)phenyl)-3,4-dihydro-1,4-methanopyrido[2,3-b][1,4]diazepine-5(2H)-carboxamide] | B (EC1.5 1-25 μM) | A (Fold activation ≧150%) |
| O=C(Nc1cccc(OC[C@H](O)CO)n1)N1c2nc(-c3cccc(C(F)(F)F)c3)c(Cl)cc2N2CC[C@H]1C2 [Example 56, (4S)-8-chloro-N-(6-((R)-2,3-dihydroxypropoxy)pyridin-2-yl)-7-(3-(trifluoromethyl)phenyl)-3,4-dihydro-1,4-methanopyrido[2,3-b][1,4]diazepine-5(2H)-carboxamide] | A (EC1.5<1 μM) | A (Fold activation ≧150%) |
| O=C(Nc1nccc(OC[C@@H](O)CO)n1)N1c2nc(-c3cccc(C(F)(F)F)c3)c(Cl)cc2N2CC[C@H]1C2 [Example 57, (4S)-8-chloro-N-(4-((S)-2,3-dihydroxypropoxy)pyrimidin-2-yl)-7-(3-(trifluoromethyl)phenyl)-3,4-dihydro-1,4-methanopyrido[2,3-b][1,4]diazepine-5(2H)-carboxamide] | A (EC1.5<1 μM) | A (Fold activation ≧150%) |
| Cl.O=C(Nc1ccnc(OC[C@@H](O)CO)c1)N1c2nc(-c3cccc(C(F)(F)F)c3)c(Cl)cc2N2CC[C@H]1C2 [Example 58, (4S)-8-chloro-N-(2-((S)-2,3-dihydroxypropoxy)pyridin-4-yl)-7-(3-(trifluoromethyl)phenyl)-3,4-dihydro-1,4-methanopyrido[2,3-b][1,4]diazepine-5(2H)-carboxamide, Hydrochloride] | A (EC1.5<1 μM) | A (Fold activation ≧150%) |
| CC(C)(O)CCOc1cccc(NC(=O)N2c3nc(-c4cccc(C(F)(F)F)c4)c(Cl)cc3N3CC[C@H]2C3)n1 [Example 59, (4S)-8-chloro-N-(6-(3-hydroxy-3-methylbutoxy)pyridin-2-yl)-7-(3-(trifluoromethyl)phenyl)-3,4-dihydro-1,4-methanopyrido[2,3-b][1,4]diazepine-5(2H)-carboxamide] | B (EC1.5 1-25 μM) | A (Fold activation ≧150%) |

Reference: patent publication US20170355705A1 (GlaxoSmithKline Intellectual Property (No.2) Limited, priority 2014, published 2017)
